Experimental data reported in paper PMC8092340 (Oncotarget, 2021).
Like-named read-outs stand apart in the source and are kept apart here. One block for each molecule: values may come before it.

Experiments:
[1] = Cytotoxicity in the absence of DSB ligands (CT), Hoechst cell count; assay type: cell-based, human; details: human, EJ-DR U2OS cells, no DSB ligands
Method: (§4) In addition to quantifying HR and alt-NHEJ activities, cytotoxicity in the absence of DSB ligands (CT) was also evaluated by quantifying the number of Hoeschst 33342-stained cells, allowing us to better understand the margin between on-target and presumable off-target, DNA repair-independent effects. IC50 values of HR inhibition, alt-NHEJ inhibition, and CT were used to calculate the “selectivity index” (SI) (defined as the ratio of CT IC50/alt-NHEJ IC50) and alt-NHEJ selectivity defined as HR IC50/alt-NHEJ IC50. […] (Figure 1E).
(§5) The EJ-DR cell line was cultured in high glucose Dulbecco’s modified Eagle’s medium (DMEM; Thermo Fisher Scientific) with L-glutamine containing 10% tetracycline-free (tet-free) fetal bovine serum (FBS; Takara Bio Inc. and Atlanta Biologics) and 1% Penicillin Streptomycin (Thermo Fisher Scientific). […] All cells were maintained at 37°C with 5% CO2.
(§6) The EJ-DR cells were plated in 384-well imaging plates at 2500 cells/well. 24 hours later, the DSB ligands, Triamcinolone Acetonide (TA; Sigma-Aldrich Co., LLC) and Shield-1 (Takara Bio Inc.), responsible for inducing the DSBs, were added for a final concentration of 100 nM TA and 1 μM Shield-1. Test compounds were also added at the same time using Echo 550 Acoustic Dispenser (Labcyte). A separate plate was seeded to test for cytotoxicity of the test compounds in the absence of the DSB ligands. […] The DSB ligands were washed out 24 hours after addition. 96 hours after addition of the ligands and test compounds, the media was washed off and cells were incubated with Hoechst nuclear stain in Live Cell Imaging Solution (Thermo Fisher Scientific). Plates were rinsed and prepared for immediate live cell imaging using GE IN Cell 2200 (Cytiva Life Sciences). Images were analyzed using InCell Analyzer software (Cytiva Life Sciences). Nuclei were segmented based on the Hoechst staining, and the intensity of the GFP and RFP signals in control populations were measured and binned into histograms to determine signal intensity threshold. The GFP and RFP intensity of all wells was then analyzed, and the percent of positive cells with GFP and RFP intensity above the threshold was calculated to determine the induction of signal. The DAPI cell counts were used to determine the relative cytotoxicity of test compounds in the absence of induced DNA damage.

[2] = test system: alt-NHEJ; experiment: EJ-DR 384-well imaging assay, alt-NHEJ (RFP) readout; details: for selectivity index SI (CT IC50/alt-NHEJ IC50) / Selectivity Index (HR IC50/alt-NHEJ IC50): ratio; for Selectivity Index (HR IC50/alt-NHEJ IC50): Supplementary Table 2
From the text: (§7) The EJ-DR system was made in the U2OS cell line, which provides a simultaneous read-out of alt-NHEJ and HR activity in cells in response to induced DSBs. The cell line consists of a repair template and a reporter vector. When both these elements are chromosomally integrated, cleavage of a restriction enzyme site in the repair template, induced by ligand addition, causes a DSB. Depending on which DSB repair pathway is utilized, cells either express GFP if HR is used to repair the break site using the downstream homology template near the restriction enzyme site, or RFP if alt-NHEJ is involved in ligation of the cut ends.
(§8) An overview of the workflow of this assay is presented in Figure 1A, which starts with the addition of the test compounds and DSB ligands, followed by a media wash 24 hours later to terminate DSB induction, and then live cell imaging 96 hours later. After live cell imaging, we quantify the individual intensities of GFP and RFP signal in cells using the IN Cell imager. We then use the intensity measurements of individual cells in each channel and plot these intensities as a histogram to threshold out baseline levels of GFP and RFP intensity in the absence of ligands (Figure 1B and 1C). After applying the threshold, the percent of GFP and RFP-positive cells is calculated as a readout of induction of HR and alt-NHEJ activity, respectively.
(§9) In addition to quantifying HR and alt-NHEJ activities, cytotoxicity in the absence of DSB ligands (CT) was also evaluated by quantifying the number of Hoeschst 33342-stained cells, allowing us to better understand the margin between on-target and presumable off-target, DNA repair-independent effects. IC50 values of HR inhibition, alt-NHEJ inhibition, and CT were used to calculate the “selectivity index” (SI) (defined as the ratio of CT IC50/alt-NHEJ IC50) and alt-NHEJ selectivity defined as HR IC50/alt-NHEJ IC50.
(§10) The EJ-DR cell line was created in the U2OS cells (a human osteosarcoma cell line), and contained a stably integrated EJ-RFP plasmid to measure alt-NHEJ repair and a DR-GFP plasmid to measure HR repair, and has been previously described [9]. The EJ-DR cell line was cultured in high glucose Dulbecco’s modified Eagle’s medium (DMEM; Thermo Fisher Scientific) with L-glutamine containing 10% tetracycline-free (tet-free) fetal bovine serum (FBS; Takara Bio Inc. and Atlanta Biologics) and 1% Penicillin Streptomycin (Thermo Fisher Scientific). Tet-free FBS was used to prevent any expression of the tetracycline-inducible EJ-RFP system from residual tetracycline found in most commercially available FBS. All cells were maintained at 37°C with 5% CO2.
(§11) The EJ-DR cells were plated in 384-well imaging plates at 2500 cells/well. 24 hours later, the DSB ligands, Triamcinolone Acetonide (TA; Sigma-Aldrich Co., LLC) and Shield-1 (Takara Bio Inc.), responsible for inducing the DSBs, were added for a final concentration of 100 nM TA and 1 μM Shield-1. Test compounds were also added at the same time using Echo 550 Acoustic Dispenser (Labcyte). A separate plate was seeded to test for cytotoxicity of the test compounds in the absence of the DSB ligands. […] The DSB ligands were washed out 24 hours after addition. 96 hours after addition of the ligands and test compounds, the media was washed off and cells were incubated with Hoechst nuclear stain in Live Cell Imaging Solution (Thermo Fisher Scientific). Plates were rinsed and prepared for immediate live cell imaging using GE IN Cell 2200 (Cytiva Life Sciences).

[3] = test system: EJ-DR U2OS cells; experiment: Cytotoxicity in the absence of DSB ligands (CT), Hoechst cell count; assay type: cell-based, human; details: Supplementary Table 2, mean ± SEM of four technical replicates
Method: as §4, §5, §6

[4] = test system: HR; experiment: EJ-DR 384-well imaging assay, HR (GFP) readout; details: read-out: HR IC50
From the text: as §7, §8, §9, §10, §11

[5] = target: T1, CYP3A4 (Homo sapiens, UniProt P08684); experiment: Cytochrome P450 inhibition assay in human liver microsomes, CYP3A4; assay type: in vitro ADME; details: human liver microsomes; for selectivity ratio: human, read-out: SICYP 3A4 (selectivity index of CYP, CYP3A4 IC50 to alt-NHEJ IC50), called fold decrease in CYP3A4 inhibition
T1 construct: tissue Eurofins Scientific; host or cells: human liver microsomes
T1 sequence (P08684 whole entry): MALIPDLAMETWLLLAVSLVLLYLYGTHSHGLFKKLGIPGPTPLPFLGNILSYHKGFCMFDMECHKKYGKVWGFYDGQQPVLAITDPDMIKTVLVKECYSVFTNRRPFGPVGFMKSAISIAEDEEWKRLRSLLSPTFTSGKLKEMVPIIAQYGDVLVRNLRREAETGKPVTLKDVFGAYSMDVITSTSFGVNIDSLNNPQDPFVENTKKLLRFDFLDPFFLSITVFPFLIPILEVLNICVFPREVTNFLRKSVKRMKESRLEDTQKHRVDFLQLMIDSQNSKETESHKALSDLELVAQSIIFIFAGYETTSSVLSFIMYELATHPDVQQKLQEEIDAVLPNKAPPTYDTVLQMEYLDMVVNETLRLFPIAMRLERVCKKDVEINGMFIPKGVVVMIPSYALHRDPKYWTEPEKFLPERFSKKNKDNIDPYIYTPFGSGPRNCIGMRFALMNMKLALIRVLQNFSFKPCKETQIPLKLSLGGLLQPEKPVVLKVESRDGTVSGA
Method: (§1) CYP inhibition assays were performed by Eurofins Scientific. Test compounds were incubated with human liver microsomes, followed by compound detection using high performance liquid chromatography with tandem mass spectrometry (HPLC-MS/MS).

[6] = target: T2, CYP2D6 (Homo sapiens, UniProt P10635); experiment: Cytochrome P450 inhibition assay in human liver microsomes, CYP2D6; assay type: in vitro ADME; details: for IC50 / selectivity ratio: human liver microsomes; for selectivity ratio: human, read-out: SICYP 2D6 (selectivity index of CYP, CYP2D6 IC50 to alt-NHEJ IC50), called fold decrease in CYP2D6 inhibition
T2 construct: tissue Eurofins Scientific; host or cells: human liver microsomes
T2 sequence (P10635 whole entry): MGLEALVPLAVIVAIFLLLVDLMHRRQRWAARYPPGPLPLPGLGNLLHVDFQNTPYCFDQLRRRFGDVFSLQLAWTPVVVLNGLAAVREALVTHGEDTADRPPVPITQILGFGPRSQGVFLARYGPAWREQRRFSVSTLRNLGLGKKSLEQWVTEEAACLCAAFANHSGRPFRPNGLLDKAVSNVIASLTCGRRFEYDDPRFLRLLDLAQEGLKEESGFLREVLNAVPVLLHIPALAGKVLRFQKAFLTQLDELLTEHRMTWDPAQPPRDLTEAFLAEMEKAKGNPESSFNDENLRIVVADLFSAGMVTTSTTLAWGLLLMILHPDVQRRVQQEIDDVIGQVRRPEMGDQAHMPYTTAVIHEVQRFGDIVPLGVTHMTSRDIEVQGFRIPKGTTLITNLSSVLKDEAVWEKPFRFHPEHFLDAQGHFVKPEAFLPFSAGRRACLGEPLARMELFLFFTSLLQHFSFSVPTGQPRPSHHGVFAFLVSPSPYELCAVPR
Method: as §1

[7] = target: T3, L type Cav 1.2 (Homo sapiens, UniProt Q13936); experiment: Calcium channel blocking study, L-type; assay type: cell-based; details: CHO cells stably expressing the channel
T3 construct: host or cells: CHO
Method: (§12) Calcium channel blocking studies were performed by Charles River Laboratories in Chinese Hamster Ovary (CHO) and HEK293 cell lines stably expressing L-Type and T-type calcium channels, respectively, under tetracycline induction in accordance with a previously published study [46]. Data acquisition and analysis was performed using the IonWorks Quattro™ or Barracuda system software (Molecular Devices Corporation).

[8] = target: T4, T type Cav 3.1 (Homo sapiens, UniProt O43497); experiment: Calcium channel blocking study, T-type Cav3.1; assay type: cell-based; details: HEK293 cells stably expressing the channel
T4 construct: host or cells: HEK293
Method: as §12

[9] = target: T5, T type Cav 3.2 (Homo sapiens, UniProt O95180); experiment: Calcium channel blocking study, T-type Cav3.2; assay type: cell-based; details: HEK293 cells stably expressing the channel
T5 construct: host or cells: HEK293
T5 sequence (O95180 whole entry): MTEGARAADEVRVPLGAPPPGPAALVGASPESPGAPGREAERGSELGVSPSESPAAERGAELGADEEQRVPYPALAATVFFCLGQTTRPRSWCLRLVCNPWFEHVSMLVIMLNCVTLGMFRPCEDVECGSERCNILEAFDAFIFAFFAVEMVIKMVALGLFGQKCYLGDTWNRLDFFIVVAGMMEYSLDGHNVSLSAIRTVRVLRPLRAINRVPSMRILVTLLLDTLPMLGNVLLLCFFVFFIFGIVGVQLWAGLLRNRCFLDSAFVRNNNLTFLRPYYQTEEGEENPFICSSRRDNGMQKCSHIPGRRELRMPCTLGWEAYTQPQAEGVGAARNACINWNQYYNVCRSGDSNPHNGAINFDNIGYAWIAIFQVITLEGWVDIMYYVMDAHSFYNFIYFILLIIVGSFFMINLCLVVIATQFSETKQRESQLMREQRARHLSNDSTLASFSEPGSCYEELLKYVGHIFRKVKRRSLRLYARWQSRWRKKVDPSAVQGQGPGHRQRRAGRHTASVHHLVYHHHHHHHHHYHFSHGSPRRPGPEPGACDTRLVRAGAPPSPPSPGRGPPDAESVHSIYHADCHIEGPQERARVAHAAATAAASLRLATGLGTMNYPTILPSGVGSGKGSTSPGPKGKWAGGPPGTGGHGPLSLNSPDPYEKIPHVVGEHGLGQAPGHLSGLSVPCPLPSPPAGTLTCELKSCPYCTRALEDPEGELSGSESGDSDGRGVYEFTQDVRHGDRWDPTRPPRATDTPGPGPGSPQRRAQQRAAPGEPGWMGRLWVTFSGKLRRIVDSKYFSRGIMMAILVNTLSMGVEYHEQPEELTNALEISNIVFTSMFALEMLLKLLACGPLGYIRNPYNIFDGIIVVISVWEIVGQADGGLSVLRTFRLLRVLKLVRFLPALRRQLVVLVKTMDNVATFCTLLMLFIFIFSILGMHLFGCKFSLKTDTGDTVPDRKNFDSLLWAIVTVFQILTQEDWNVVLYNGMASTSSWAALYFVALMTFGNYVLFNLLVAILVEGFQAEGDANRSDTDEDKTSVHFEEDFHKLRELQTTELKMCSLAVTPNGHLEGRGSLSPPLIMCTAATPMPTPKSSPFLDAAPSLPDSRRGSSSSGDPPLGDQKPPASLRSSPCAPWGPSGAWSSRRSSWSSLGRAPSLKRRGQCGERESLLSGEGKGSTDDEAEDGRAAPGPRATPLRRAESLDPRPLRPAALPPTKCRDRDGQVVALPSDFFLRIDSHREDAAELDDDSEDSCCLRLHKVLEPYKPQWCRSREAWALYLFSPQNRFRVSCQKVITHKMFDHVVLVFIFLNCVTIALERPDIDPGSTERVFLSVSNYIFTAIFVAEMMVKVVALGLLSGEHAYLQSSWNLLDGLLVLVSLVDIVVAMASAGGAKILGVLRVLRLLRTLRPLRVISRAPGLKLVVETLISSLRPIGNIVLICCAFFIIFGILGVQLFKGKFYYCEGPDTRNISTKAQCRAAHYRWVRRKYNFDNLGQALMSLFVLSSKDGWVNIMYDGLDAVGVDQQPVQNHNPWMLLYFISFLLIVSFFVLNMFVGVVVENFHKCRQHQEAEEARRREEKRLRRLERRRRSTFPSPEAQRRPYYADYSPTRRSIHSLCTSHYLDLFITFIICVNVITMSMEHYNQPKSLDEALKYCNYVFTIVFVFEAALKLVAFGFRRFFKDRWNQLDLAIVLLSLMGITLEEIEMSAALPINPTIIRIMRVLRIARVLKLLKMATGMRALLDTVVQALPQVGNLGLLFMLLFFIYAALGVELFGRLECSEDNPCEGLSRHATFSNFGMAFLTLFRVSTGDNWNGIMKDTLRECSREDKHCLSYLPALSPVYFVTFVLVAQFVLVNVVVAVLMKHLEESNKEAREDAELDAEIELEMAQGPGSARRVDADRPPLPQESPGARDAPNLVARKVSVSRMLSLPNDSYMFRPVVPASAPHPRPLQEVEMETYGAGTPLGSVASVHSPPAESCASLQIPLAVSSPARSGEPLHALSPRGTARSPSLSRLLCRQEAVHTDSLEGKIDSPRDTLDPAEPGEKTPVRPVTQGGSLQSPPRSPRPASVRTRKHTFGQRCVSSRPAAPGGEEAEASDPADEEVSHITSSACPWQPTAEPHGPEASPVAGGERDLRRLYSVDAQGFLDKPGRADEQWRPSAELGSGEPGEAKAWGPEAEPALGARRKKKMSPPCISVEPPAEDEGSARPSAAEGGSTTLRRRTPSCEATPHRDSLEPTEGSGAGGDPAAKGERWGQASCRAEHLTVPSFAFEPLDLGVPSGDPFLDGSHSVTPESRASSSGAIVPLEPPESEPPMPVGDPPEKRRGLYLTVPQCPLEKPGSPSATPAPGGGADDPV
Method: as §12

[10] = target: T6, T type Cav 3.3 (Homo sapiens, UniProt Q9P0X4); experiment: Calcium channel blocking study, T-type Cav3.3; assay type: cell-based; details: HEK293 cells stably expressing the channel
T6 construct: host or cells: HEK293
Method: as §12

[11] = target: T7, Human hERG (Kv11.1) (Homo sapiens, UniProt Q12809); experiment: Automated hERG inhibition patch clamp assay; assay type: cell-based; details: for IC50: patch clamp, CHO-K1 cells; for SIhERG (hERG IC50/alt-NHEJ IC50), called fold reduction in hERG potency: ratio
T7 construct: host or cells: CHO-K1
T7 sequence (Q12809 whole entry): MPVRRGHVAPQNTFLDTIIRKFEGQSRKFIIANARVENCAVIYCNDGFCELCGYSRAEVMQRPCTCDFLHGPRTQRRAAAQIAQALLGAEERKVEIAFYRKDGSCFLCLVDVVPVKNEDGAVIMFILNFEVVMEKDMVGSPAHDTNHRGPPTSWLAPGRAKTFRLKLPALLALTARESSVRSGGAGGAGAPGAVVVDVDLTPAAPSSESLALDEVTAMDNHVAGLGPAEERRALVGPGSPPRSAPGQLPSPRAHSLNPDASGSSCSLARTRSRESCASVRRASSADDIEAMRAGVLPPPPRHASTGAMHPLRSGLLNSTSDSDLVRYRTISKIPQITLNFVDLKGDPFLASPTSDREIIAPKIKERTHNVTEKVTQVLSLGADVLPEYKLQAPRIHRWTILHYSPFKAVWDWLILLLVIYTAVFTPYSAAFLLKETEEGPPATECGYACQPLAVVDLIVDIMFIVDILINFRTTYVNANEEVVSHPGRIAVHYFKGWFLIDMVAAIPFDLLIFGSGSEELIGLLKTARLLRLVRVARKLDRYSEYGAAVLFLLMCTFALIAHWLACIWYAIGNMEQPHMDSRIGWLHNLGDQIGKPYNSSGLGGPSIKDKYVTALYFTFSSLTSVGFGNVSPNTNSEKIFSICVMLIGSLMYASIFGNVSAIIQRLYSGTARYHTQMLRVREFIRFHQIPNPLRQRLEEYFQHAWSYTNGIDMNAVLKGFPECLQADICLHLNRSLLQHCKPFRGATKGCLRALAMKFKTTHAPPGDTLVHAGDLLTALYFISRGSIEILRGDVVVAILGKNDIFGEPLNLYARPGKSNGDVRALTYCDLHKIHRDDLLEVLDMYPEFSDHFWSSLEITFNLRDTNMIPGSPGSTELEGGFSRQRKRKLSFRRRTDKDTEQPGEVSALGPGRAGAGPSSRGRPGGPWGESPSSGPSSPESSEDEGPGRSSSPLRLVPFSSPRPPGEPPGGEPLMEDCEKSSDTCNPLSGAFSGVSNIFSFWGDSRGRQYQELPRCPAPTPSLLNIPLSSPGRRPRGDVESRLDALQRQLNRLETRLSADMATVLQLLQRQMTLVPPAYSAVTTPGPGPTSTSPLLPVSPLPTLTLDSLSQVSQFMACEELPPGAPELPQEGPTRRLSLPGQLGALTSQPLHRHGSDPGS
Method: Automated whole cell voltage clamp hERG inhibition assays were performed in Human hERG (Kv11.1) expressed in CHO-K1 cells optimized for automated patch clamp studies by Sophion Bioscience A/S [47].

[12] = In vivo pharmacokinetic study, plasma
Method: (§2) These measurements were used to calculate various pharmacokinetic parameters critical to bioavailability including time to reach maximum concentration (tmax), maximum concentration achieved (Cmax), and half-life (t1/2) (Figure 5C, 5D, Supplementary Table 1).
(§3) Compound concentrations were measured at these time-points using Liquid Chromatography with tandem mass spectrometry (LC-MS-MS). Pharmacokinetic studies were performed by orally dosing test compounds at 30 mg/kg dissolved in 50% PEG400 and 50% water in female athymic nude mice. Plasma and brain tissue concentration were measured using mass spectrometry (MS).

[13] = In vivo pharmacokinetic study, brain tissue; details: oral 30 mg/kg, female athymic nude mice
Method: as §2, §3

[14] = Homo sapiens, U2OS, read-out: alt-NHEJ IC50
[15] = Homo sapiens, read-out: alt-NHEJ IC50
[16] = oral 30 mg/kg, female athymic nude mice
[17] = EJ-DR U2OS cells, text and figures
[18] = read-out: alt-NHEJ IC50, EJ-DR U2OS cells, text and figures

SMILES: CC(C)C1c2ccccc2CCN1C(=O)CC1CCN(C(=O)OC(C)(C)C)CC1 (stereo not drawn) [YU241542]
- IC50 at 96 h ([1]; figures, read-out: CT IC50 (cytotoxicity)): > 60 µM
- IC50 [2, 14]: 41.3 µM
- selectivity index SI (CT IC50/alt-NHEJ IC50) [2]: > 1.45

- IC50 ([4]; EJ-DR assay, Supplementary Table 2, mean ± SEM of four technical replicates): 0.06 ± 0.01 µM
SMILES: CC(=O)c1c(C)c2cnc(Nc3ccc(N4CCNCC4)cn3)nc2n(C2CCCC2)c1=O [Pablociclib]
- IC50 [3]: 1.37 ± 0.36 µM
- Selectivity Index (HR IC50/alt-NHEJ IC50) [2]: 1.50
- IC50 ([2]; read-out: alt-NHEJ IC50, EJ-DR assay, Supplementary Table 2, mean ± SEM of four technical replicates): 0.04 ± 0.01 µM

- IC50 ([4]; Homo sapiens): > 60 µM
SMILES: NC(=O)Nc1cc(-c2cccc(F)c2)sc1C(=O)N[C@H]1CCCNC1 [AZD 7762]
- IC50 ([3]; Homo sapiens, U2OS): 0.13 ± 0.01 µM
- IC50 [2, 15]: > 60 µM

SMILES: O=c1cc(N2CCOCC2)oc2c(-c3cccc4c3sc3ccccc34)cccc12 [NU 4771]
- effect on alt-NHEJ and HR in the EJ-DR assay ([2]; EJ-DR U2OS cells): increase in both alt-NHEJ and HR

- IC50 ([4]; Homo sapiens): 4.4 ± 5.17 µM
SMILES: NC1(c2ccc(-c3nc4ccn5c(=O)[nH]nc5c4cc3-c3ccccc3)cc2)CCC1 [MK-2206]
- IC50 ([3]; Homo sapiens, U2OS): 16.5 ± 2.56 µM
- IC50 [2, 15]: 0.66 ± 0.31 µM
- Selectivity Index (HR IC50/alt-NHEJ IC50) [2]: 6.67

- IC50 [5]: 12.6 µM
- IC50 [6]: 3.5 µM
SMILES: COCC(=O)OC1(CCN2CC(Oc3nccc4ccccc34)CC2CO)CCc2cc(F)ccc2C1C(C)C (stereo not drawn) [YU252376]
- selectivity ratio [5]: 11.4
- selectivity ratio ([6]; ratio): ~3
- SICYP 2D6 (selectivity index of CYP, CYP2D6 IC50 to alt-NHEJ IC50), called fold decrease in CYP2D6 inhibition ([6]; ratio): 3.18
- IC50 [2, 14]: 1.1 µM

- IC50 [8]: 5.3 µM
- IC50 [9]: 5.6 µM
- IC50 [10]: 8.2 µM
- half-life ([12]; female, athymic nude, mouse, plasma, po, 30 mg/kg): 1.81 h
- Cmax ([12]; female, athymic nude, mouse, plasma, po, 30 mg/kg, Maximum concentration (Cmax), oral 30 mg/kg, female athymic nude mice, YU252222 given as methyl ester prodrug): 68.9 ng/mL
- % AUC Extrapolation [12, 16]: 1.1%
- AUC(0-x)/Dose [12, 16]: 5.83 ng·h/mL/mg/kg
- Cmax/Dose [12, 16]: 2.30 ng/mL/mg/kg
- Time at which Cmax was observed (tmax) [12, 16]: 1.0 h
- Area under concentration vs time curve (AUC) (0-x) ([12]; oral 30 mg/kg, female athymic nude mice, YU252222 given as methyl ester prodrug): 175 ng·h/mL
- Maximum concentration (Cmax) ([12]; oral 30 mg/kg, female athymic nude mice, YU252222 given as methyl ester prodrug, 30 mg/kg): < 100 ng/mL
- IC50 ([4]; Homo sapiens): > 60 µM
SMILES: CC(C)C1c2ccc(F)cc2CCC1(O)CCN1CC(Oc2ccc(Cl)cn2)CC1CO (stereo not drawn) [YU252377]
- IC50 at 96 h ([1]; Table 1, read-out: Cytotoxicity IC50): 14.8 µM
- IC50 [7]: 6.3 µM
- IC50 [11]: 6.43 µM
- SIhERG (hERG IC50/alt-NHEJ IC50), called fold reduction in hERG potency [11]: 4.20
- brain exposure [13]: did not achieve detectable brain exposure
- IC50 [2, 14]: 1.53 µM
- IC50 ([2]; Homo sapiens, read-out: nc-EJ IC50): 1.5 µM

SMILES: O.O=C(O)C(F)(F)F.O=c1[nH]c2ccccc2n1C1CCN(Cc2ccc(-c3nc4cc5[nH]cnc5cc4nc3-c3ccccc3)cc2)CC1 [Akt-1/2 inhibitor]
- IC50 [4, 17]: > 10 µM
- selectivity index SI (CT IC50/alt-NHEJ IC50) [2]: 77.67
- IC50 [2, 18]: 0.15 µM

SMILES: COC[C@@H]1C[C@@H](Oc2nccc3ccccc23)CN1CC[C@@]1(O)CCc2cc(F)ccc2[C@@H]1C(C)C [YU252373]
- IC50 [11]: 9.8 µM
- SIhERG (hERG IC50/alt-NHEJ IC50), called fold reduction in hERG potency [11]: 5.76
- IC50 [2, 14]: 1.7 µM

- IC50 [5]: 14.5 µM
- IC50 [6]: 2.3 µM
SMILES: O=C(NC(CCN1CC(Oc2nccc3ccccc23)CC1CO)c1ccc(F)cc1)C1CCC(F)(F)CC1 (stereo not drawn) [YU253106]
- selectivity ratio [5]: 10.3
- selectivity ratio ([6]; ratio): 1.64
- IC50 [2, 14]: 1.4 µM

- IC50 [4, 17]: 7.18 µM
SMILES: C[C@H]1COCCN1c1cc(C2(S(=O)(=O)C3CC3)CC2)nc(-c2ccc(NC(=S)NCCO)cc2)n1 [mTORC1/2 inhibitor, AZD 3147]
- selectivity index SI (CT IC50/alt-NHEJ IC50) [2]: 7.22
- IC50 [2, 18]: 0.09 µM
